Data on 3 molecules can be found in US8697898B2, “Medical application of lipid derivatives of dopamine and the methods of their production” (Instytut Medycyny Doswiadczalnej i Klinicznej im. M. …, priority 2011, dated 2014).

Data set [1] relates to awake Wistar rats. The data set can be described thus: Respiration in normoxia and hypoxia in the awake rat (plethysmographic chamber). It counts as in vivo. To be noted: for minute lung ventilation after administration of haloperidol and N-oleoyl-dopamine: haloperidol 0.9 mg/kg i.p. prior to N-oleoyl-dopamine 40 mg/kg i.p. How it is done:
The study was performed in awake Wistar rats in a computerized plethysmographic chamber for small rodents. Respiratory frequency, tidal volume and pulmonary ventilation were measured. The experimental protocol included recordings in normoxia (breathing with atmospheric air), two levels of hypoxic stimulus (8% and 12% O2 in N2), intraperitoneal (i.p.) administration of N-oleoyl-dopamine (in a dose of 40 mg/kg) and repeated recordings for both normoxic and hypoxic states. Additionally, further experiments with the dopamine receptor antagonist haloperidol (in a dose of 0.9 mg/kg, i.p.) were performed. In those experiments, haloperidol was administered prior to N-oleoyl-dopamine and the recordings according the above-mentioned protocol were repeated.
The study was performed in awake Wistar rats in a computerized plethysmographic chamber for small rodents. Respiratory frequency, tidal volume and pulmonary ventilation were measured. The experimental protocol included recordings for normoxia (breathing with atmospheric air), for two levels of hypoxic stimulus (8% and 12% O2 in N2), intraperitoneal (i.p.) administration of 3′-O-methyl-N-oleoyl-dopamine (in a dose of 40 mg/kg), and then repeated recordings for both normoxic and hypoxic states.

Data set [2] has as its system rat model of Parkinson's disease. How it is done:
Symptoms of the Parkinson's disease, particularly muscle rigidity during flexion and extension movements in the ankle joint, were induced with reserpine (2.5 mg/kg, i.p.) and a-methyl-tyrosine (α-MT, 250 mg/kg, i.p.) administered at a 16-h interval. Afterwards, 3′-O-methyl-N-oleoyl-dopamine (O-Me-OLDA) was administered at a dose of 10 mg/kg and the muscular tone was measured using electromyographic (EMG) techniques. The control groups consisted of a) only vehiculum-treated animals in which no symptoms of Parkinson's disease were induced (control), b) animals who received only 3′-O-methyl-N-oleoyl-dopamine (O-Me-OLDA) and c) animals in which symptoms of Parkinson's disease were induced (reserpine+α-MT), but no other treatment was introduced.
This method is a pharmacological tool for modeling the typical, dopamine-deficiency-related brain symptoms of Parkinson's disease in rats.

The test system of data set [3] is anesthetized, paralyzed and artificially ventilated Wistar rats. The data set can be described thus: Respiratory response to hypoxia in the anesthetized rat (integrated phrenic nerve activity). It counts as in vivo. On the procedure: The study was performed in anesthetized, paralyzed and artificially ventilated Wistar rats. During the experiments, the integrated activity of the phrenic nerve was recorded. This activity reflects the frequency and tidal volume; their product represents the index of minute lung ventilation. The experimental protocol consisted of control recordings for two levels of the hypoxic stimulus: 14% and 11% O2 in N2. Afterwards, N-oleoyl-dopamine in a dose of 20 mg/kg was given and the recordings were repeated. Additionally, experiments with two dopamine receptor antagonists were performed: first, with the penetrating through the blood-brain barrier D2 dopamine receptor antagonist haloperidol and second, with the non-penetrating through the blood-brain-barrier domperidone. In these studies, after the control recordings, haloperidol (in a dose of 3 mg/kg) or domperidone (in a dose of 0.3 mg/kg) were administered and the recordings repeated. Then, N-oleoyl-dopamine was given and the recordings were repeated.

Data set [4] relates to membrane system of the rat brain. The data set can be described thus: Binding to the rat brain membrane system after intraperitoneal administration (TLC of brain lipids). It counts as in vivo, Wistar rats. To be noted: 20 mg/kg intraperitoneal. On the procedure: N-oleoyl-dopamine was administered to Wistar rats at a dose of 20 mg/kg. After 1, 2, 3 or 24 hours the rat was sacrificed and the brain was resected. From the tissue, the whole lipid fraction, containing all lipids of the brain and the membrane fraction of the rat brain were obtained. Total lipids were obtained by homogenization of the brain in a mixture of chloroform and methanol 2:1 followed by an extraction of the water-soluble fractions and evaporation of the solvent. The membrane phase was obtained according to Xu et al. (Xu, 1998) and extracted with chloroform to obtain membrane lipids. All obtained samples were analyzed by the thin layer chromatography TLC on silica gel plates 60 using a mixture of chloroform and methanol 95:5 as the mobile phase and N-oleoyl-dopamine as the standard. The Retention Factor (Rf) for the N-oleoyl-dopamine standard was equal to 0.24-0.26. At the same level (the same Rf=0.24-0.29) there were bands corresponding to N-oleoyl-dopamine in the biological samples, that is after systemic N-oleoyl-dopamine injection, but not in the control samples obtained with no N-oleoyl-dopamine injection.

Data set [5] deals with T1, catechol-O-methyltransferase (Homo sapiens, UniProt P21964).
T1 sequence (P21964 1-271): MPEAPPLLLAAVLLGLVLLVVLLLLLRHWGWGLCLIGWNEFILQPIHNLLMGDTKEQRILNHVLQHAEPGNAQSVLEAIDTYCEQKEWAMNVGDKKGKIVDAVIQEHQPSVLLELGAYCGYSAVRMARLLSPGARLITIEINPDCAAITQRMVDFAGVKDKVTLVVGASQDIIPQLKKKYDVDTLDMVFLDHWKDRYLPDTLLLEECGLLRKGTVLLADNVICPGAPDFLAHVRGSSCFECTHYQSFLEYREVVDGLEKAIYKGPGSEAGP
As to the kind of experiment: O-methylation by catechol-O-methyltransferase in vitro. It counts as in vitro ADME. To be noted: PBS pH=8, 10 mM magnesium ions, S-adenosyl-L-methionine, one hour at 37° C. On the procedure:
N-oleoyl-dopamine underwent the reaction of methylation with the catechol-O-methyltransferase in PBS buffer pH=8 with 10 mM magnesium ions as the co-factor and S-adenosyl-L-methionine as the donor of methyl groups. The reaction was conducted for one hour at 37° C. After the termination of the reaction, the reaction mixture was extracted with chloroform to obtain an organic and an aqueous phase. Both phases were analyzed using UV/VIS spectrophotometry and high performance liquid chromatography with mass detection (HPLC/MS). It was shown that the organic phase contained both N-oleoyl-dopamine and 3′-O-methyl-N-oleoyl-dopamine (the substrate and the product of the reaction, respectively), and the aqueous phase S-adenosyl-L-methionine and its demethylated derivative, S-adenosyl-L-homocystein (the substrate and the product of the reaction, respectively). The obtained results were additionally confirmed with the mass spectrometry (MS).

The conditions of data set [6]: after injection into the carotid artery; cited from earlier work.
The test system of data set [7] is rat. As to conditions: cited from earlier work.
Setting [8] is: N-oleoyl-dopamine given after domperidone 0.3 mg/kg.
Setting [9] is: N-oleoyl-dopamine given after haloperidol 3 mg/kg.

Structures are written as SMILES.

With `CCCCCCCC/C=C\CCCCCCCC(=O)NCCc1ccc(O)c(OC)c1` [3′-O-methyl-N-oleoyl-dopamine], in data set [1] (8% hypoxia, 40 mg/kg i.p.), the “peak respiratory response after administration” value is listed as 1939±255 ml/min/kg body weight. Besides, the “resting ventilation during breathing with atmospheric oxygen after administration” value in data set [1] (normoxia, 40 mg/kg i.p.) was determined as 779.7±148.7 ml/min/kg body weight. For the same molecule, the “level of muscle tone elevated by reserpine (force needed for flexion and extension of the ankle joint)” value in data set [2] (10 mg/kg, FIG. 1) is “decreases nearly down to the control level”. Moreover, the “muscle rigidity in rats showing symptoms of Parkinson's disease” value in data set [2] (reserpine 2.5 mg/kg i.p. + α-MT 250 mg/kg i.p., compound 10 mg/kg) was “abolished muscle rigidity”.

Take `CCCCCCCC/C=C\CCCCCCCC(=O)NCCc1ccc(O)c(O)c1` [N-oleoyl-dopamine]: in data set [3] (setting [8]), the “respiration in the inhibitory phase” value was “still diminished the respiration” and the “response to hypoxia in the stimulatory phase” value is “did not change the response to hypoxia”. In data set [3] (setting [9]), the “respiratory response in the first stimulatory phase” value is given as “did not restore the respiratory response” and the “respiratory response in the second inhibitory phase” value is reported as “still diminished it”. For the same molecule, the “peak respiratory response after administration” value in data set [1] (8% hypoxia, 40 mg/kg i.p.) is given as 1338.3±49.5 ml/min/kg body weight. In addition, in data set [1] (8% hypoxia), the “minute lung ventilation after administration of haloperidol and N-oleoyl-dopamine” value is listed as 1947.3±66.5 ml/min/kg body weight. Moreover, the “peak respiratory response after administration” value in data set [1] (12% hypoxia, 40 mg/kg i.p.) is reported as 856.6±73.7 ml/min/kg body weight. Also, the “minute lung ventilation after administration of haloperidol and N-oleoyl-dopamine” value in data set [1] (12% hypoxia) worked out at 1484.0±92.3 ml/min/kg body weight. In addition, the “peak respiratory response after N-oleoyl-dopamine under blockade of the dopaminergic system” value in data set [1] (haloperidol 0.9 mg/kg i.p. prior to N-oleoyl-dopamine) is given as “only a slight reduction”. Besides, the “penetration into the brain tissue” value in data set [4] is reported as “penetrates”. Moreover, in data set [5], the “O-methylation by catechol-O-methyltransferase” value is reported as “undergoes the O-methylation”. The “ability to penetrate into the brain” value in data set [6] is “ability to penetrate into the brain”. Also, the locomotive activity result in data set [7] is reported as “increases the locomotive activity”.

As to `O=C(CCCN1CCC(O)(c2ccc(Cl)cc2)CC1)c1ccc(F)cc1` [haloperidol, reference compound], the “respiration in the second inhibitory phase of the hypoxic response” value in data set [3] (drug alone) is on record as “diminished the respiration”.
